Results reported in patent US9833497B2, “Human originated EGF domain proteins and use of the same” (CHENGDU SOURCEBIO LIMITED-LIABILITY COMPANY, priority 2013, dated 2017).

Assays:
Type in all cases: cell-based
E. coli DH5α = test: Antibacterial activity: MIC and growth curve against E. coli DH5α in 96-well plate; details: minimal inhibitory concentration against E. coli DH5α; 96-well plate, 5×10^5 CFU/mL, 37° C., judged after 8 h
Method in brief: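 Log-phase DH5α (OD600 about 0.5, 37° C, 185 rpm in LB) was pelleted, resuspended in fresh LB and seeded at 5×10^5 CFU/mL with recombinant protein at 50, 25 and 12.5 μg/mL (two-fold series), in triplicate. Plates were shaken at 175 rpm, 37° C, and OD600 was read every 30 min. MIC was the lowest concentration with no growth.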

E. coli BL21 = test: MIC against Gram-negative bacteria: E. coli BL21; details: 5×10^5 CFU/mL
Method in brief: (§1)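 Broth microdilution, LB medium, final inoculum 5×10^5 CFU/mL from McFarland 0.5 cultures. Recombinant human EGF domain proteins tested in two-fold steps, n=3. MIC: lowest concentration, no growth.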

Pseudomonas aeruginosa = test: MIC against Gram-negative bacteria: Pseudomonas aeruginosa; details: 5×10^5 CFU/mL; for MIC against P. aeruginosa: Pseudomonas aeruginosa
Method in brief: as §1

Klebsiella pneumonia = test: MIC against Gram-negative bacteria: Klebsiella pneumonia; details: 5×10^5 CFU/mL; for MIC against K. pneumonia: Klebsiella pneumonia
Method in brief: as §1

Enterobacter cloacae = test: MIC against Gram-negative bacteria: Enterobacter cloacae; details: 5×10^5 CFU/mL; for MIC against E. cloacae: Enterobacter cloacae
Method in brief: as §1

Aeromonas hydrophila = test: MIC against Gram-negative bacteria: Aeromonas hydrophila; details: 5×10^5 CFU/mL; for MIC against A. hydrophila: Aeromonas hydrophila
Method in brief: as §1

Citrobacter diversus = test: MIC against Gram-negative bacteria: Citrobacter diversus; details: 5×10^5 CFU/mL; for MIC against C. diversus: Citrobacter diversus
Method in brief: as §1

Moraxella catarrhalis = test: MIC against Gram-negative bacteria: Moraxella catarrhalis; details: 5×10^5 CFU/mL; for MIC against M. catarrhalis: Moraxella catarrhalis
Method in brief: as §1

Proteus mirabilis = test: MIC against Gram-negative bacteria: Proteus mirabilis; details: 5×10^5 CFU/mL; for MIC against P. mirabilis: Proteus mirabilis
Method in brief: as §1

Proteus vulgaris = test: MIC against Gram-negative bacteria: Proteus vulgaris; details: 5×10^5 CFU/mL; for MIC against P. vulgaris: Proteus vulgaris
Method in brief: as §1

Serratia marcescens = test: MIC against Gram-negative bacteria: Serratia marcescens; details: 5×10^5 CFU/mL; for MIC against S. marcescens: Serratia marcescens
Method in brief: as §1

[1] = E. coli BL21, 10 h cultivation at 37° C.
[2] = P. aeruginosa, 10 h cultivation at 37° C.
[3] = K. pneumonia, 10 h cultivation at 37° C.
[4] = E. cloacae, 10 h cultivation at 37° C.
[5] = A. hydrophila, 10 h cultivation at 37° C.
[6] = C. diversus, 10 h cultivation at 37° C.
[7] = M. catarrhalis, 10 h cultivation at 37° C.
[8] = P. mirabilis, 10 h cultivation at 37° C.
[9] = P. vulgaris, 10 h cultivation at 37° C.
[10] = S. marcescens, 10 h cultivation at 37° C.
[11] = 10 h cultivation at 37° C., two-fold serial dilution
[12] = E. coli BL21, 96-well plate, 37° C., 10 h

PRT872 (CKCNLHANLCSMREGSLQCECEHNTTGPDCGKCKKNFRTRSWRAGSYLPLPHGSPNACAT; listed as Homo sapiens)
MIC (E. coli DH5α): 25 µg/mL
MIC (μg/mL) E. coli BL21 (E. coli BL21; [1]): 50 µg/mL
MIC (μg/mL) P. aeruginosa (Pseudomonas aeruginosa; [2]): 25 µg/mL
MIC (μg/mL) K. pneumonia (Klebsiella pneumonia; [3]): 12.5 µg/mL
MIC (μg/mL) E. cloacae (Enterobacter cloacae; [4]): 25 µg/mL
MIC (μg/mL) A. hydrophila (Aeromonas hydrophila; [5]): 50 µg/mL
MIC (μg/mL) C. diversus (Citrobacter diversus; [6]): 12.5 µg/mL
MIC (μg/mL) M. catarrhalis (Moraxella catarrhalis; [7]): 50 µg/mL
MIC (μg/mL) P. mirabilis (Proteus mirabilis; [8]): 12.5 µg/mL
MIC (μg/mL) P. vulgaris (Proteus vulgaris; [9]): 50 µg/mL
MIC (μg/mL) S. marcescens (Serratia marcescens; [10]): 25 µg/mL

PRT817 (FGPGCEQRCQCQHGAACDHVSGACTCPAGWRGTFCE; listed as Homo sapiens)
MIC (E. coli DH5α): 50 µg/mL
MIC (μg/mL) E. coli BL21 (E. coli BL21; [1]): 12.5 µg/mL
MIC (μg/mL) P. aeruginosa (Pseudomonas aeruginosa; [2]): 50 µg/mL
MIC (μg/mL) K. pneumonia (Klebsiella pneumonia; [3]): 25 µg/mL
MIC (μg/mL) E. cloacae (Enterobacter cloacae; [4]): 12.5 µg/mL
MIC (μg/mL) A. hydrophila (Aeromonas hydrophila; [5]): 25 µg/mL
MIC (μg/mL) C. diversus (Citrobacter diversus; [6]): 50 µg/mL
MIC (μg/mL) M. catarrhalis (Moraxella catarrhalis; [7]): 25 µg/mL
MIC (μg/mL) P. mirabilis (Proteus mirabilis; [8]): 12.5 µg/mL
MIC (μg/mL) P. vulgaris (Proteus vulgaris; [9]): 50 µg/mL
MIC (μg/mL) S. marcescens (Serratia marcescens; [10]): 12.5 µg/mL

PRT1190 (DLNYCGSHHPCTNGGTCINAEPDQYRCTCPDGYSGRNCE; listed as Homo sapiens)
MIC (E. coli DH5α): 50 µg/mL
MIC E. coli BL21 (E. coli BL21; [11]): 12.5 µg/mL
MIC P. aeruginosa (Pseudomonas aeruginosa; [11]): 25 µg/mL
MIC K. pneumonia (Klebsiella pneumonia; [11]): 12.5 µg/mL
MIC E. cloacae (Enterobacter cloacae; [11]): 50 µg/mL
MIC A. hydrophila (Aeromonas hydrophila; [11]): 12.5 µg/mL
MIC C. diversus (Citrobacter diversus; [11]): 25 µg/mL
MIC M. catarrhalis (Moraxella catarrhalis; [11]): 50 µg/mL
MIC P. mirabilis (Proteus mirabilis; [11]): 25 µg/mL
MIC P. vulgaris (Proteus vulgaris; [11]): 12.5 µg/mL
MIC S. marcescens (Serratia marcescens; [11]): 50 µg/mL

PRT432 (DVDECATDSHQCNPTQICINTEGGYTCSCTDGYWLLEGQCL; listed as Homo sapiens)
MIC (E. coli DH5α): 25 µg/mL
MIC (E. coli BL21; [1]): 50 µg/mL
MIC (Pseudomonas aeruginosa; [2]): 25 µg/mL
MIC (Klebsiella pneumonia; [3]): 12.5 µg/mL
MIC (Enterobacter cloacae; [4]): 25 µg/mL
MIC (Aeromonas hydrophila; [5]): 50 µg/mL
MIC (Citrobacter diversus; [6]): 25 µg/mL
MIC (Moraxella catarrhalis; [7]): 12.5 µg/mL
MIC (Proteus mirabilis; [8]): 25 µg/mL
MIC (Proteus vulgaris; [9]): 50 µg/mL
MIC (Serratia marcescens; [10]): 25 µg/mL

PRT1219 (DHDSCVHGPCQNGGSCLRRLAVSSVLKSRESLPVIIVANEPLQPFLCKCLPGYAGSWCE; listed as Homo sapiens)
MIC (E. coli DH5α): 12.5 µg/mL
MIC against E. coli BL21 (E. coli BL21; [12]): 50 µg/mL
MIC against P. aeruginosa (Pseudomonas aeruginosa; 96-well plate, 37° C., 10 h): 25 µg/mL
MIC against K. pneumonia (Klebsiella pneumonia; 96-well plate, 37° C., 10 h): 12.5 µg/mL
MIC against E. cloacae (Enterobacter cloacae; 96-well plate, 37° C., 10 h): 50 µg/mL
MIC against A. hydrophila (Aeromonas hydrophila; 96-well plate, 37° C., 10 h): 12.5 µg/mL
MIC against C. diversus (Citrobacter diversus; 96-well plate, 37° C., 10 h): 25 µg/mL
MIC against M. catarrhalis (Moraxella catarrhalis; 96-well plate, 37° C., 10 h): 25 µg/mL
MIC against P. mirabilis (Proteus mirabilis; 96-well plate, 37° C., 10 h): 50 µg/mL
MIC against P. vulgaris (Proteus vulgaris; 96-well plate, 37° C., 10 h): 25 µg/mL
MIC against S. marcescens (Serratia marcescens; 96-well plate, 37° C., 10 h): 25 µg/mL

PRT608 (CDCNGRSQECYFDPELYRSTGHGGHCTNCQDNTDGAHCERCRENFFRLGNNEACSS; listed as Homo sapiens)
MIC (E. coli DH5α): 12.5 µg/mL
MIC E. coli BL21 (E. coli BL21; 96-well plate, 37° C., 10 h): 50 µg/mL
MIC P. aeruginosa (Pseudomonas aeruginosa; 96-well plate, 37° C., 10 h): 12.5 µg/mL
MIC K. pneumonia (Klebsiella pneumonia; 96-well plate, 37° C., 10 h): 50 µg/mL
MIC E. cloacae (Enterobacter cloacae; 96-well plate, 37° C., 10 h): 25 µg/mL
MIC A. hydrophila (Aeromonas hydrophila; 96-well plate, 37° C., 10 h): 12.5 µg/mL
MIC C. diversus (Citrobacter diversus; 96-well plate, 37° C., 10 h): 25 µg/mL
MIC M. catarrhalis (Moraxella catarrhalis; 96-well plate, 37° C., 10 h): 50 µg/mL
MIC P. mirabilis (Proteus mirabilis; 96-well plate, 37° C., 10 h): 25 µg/mL
MIC P. vulgaris (Proteus vulgaris; 96-well plate, 37° C., 10 h): 12.5 µg/mL
MIC S. marcescens (Serratia marcescens; 96-well plate, 37° C., 10 h): 25 µg/mL

PRT213 (QNCTKTPCLPNAKCEIRNGIEACYCNMGFSGNGVTICE; listed as Homo sapiens)
MIC (E. coli DH5α): 12.5 µg/mL
MIC (μg/mL) E. coli BL21 (E. coli BL21; [1]): 12.5 µg/mL
MIC (μg/mL) P. aeruginosa (Pseudomonas aeruginosa; [2]): 12.5 µg/mL
MIC (μg/mL) K. pneumonia (Klebsiella pneumonia; [3]): 12.5 µg/mL
MIC (μg/mL) E. cloacae (Enterobacter cloacae; [4]): 50 µg/mL
MIC (μg/mL) A. hydrophila (Aeromonas hydrophila; [5]): 12.5 µg/mL
MIC (μg/mL) C. diversus (Citrobacter diversus; [6]): 50 µg/mL
MIC (μg/mL) M. catarrhalis (Moraxella catarrhalis; [7]): 12.5 µg/mL
MIC (μg/mL) P. mirabilis (Proteus mirabilis; [8]): 25 µg/mL
MIC (μg/mL) P. vulgaris (Proteus vulgaris; [9]): 50 µg/mL
MIC (μg/mL) S. marcescens (Serratia marcescens; [10]): 25 µg/mL

PRT1391 (PLPVCQEQCSGHGTFLLDAGVCSCDPKWTGSDCS; listed as Homo sapiens)
MIC (E. coli DH5α): 12.5 µg/mL
MIC against E. coli BL21 (E. coli BL21; [1]): 12.5 µg/mL
MIC against P. aeruginosa (Pseudomonas aeruginosa; 10 h cultivation at 37° C.): 12.5 µg/mL
MIC against K. pneumonia (Klebsiella pneumonia; 10 h cultivation at 37° C.): 12.5 µg/mL
MIC against E. cloacae (Enterobacter cloacae; 10 h cultivation at 37° C.): 12.5 µg/mL
MIC against A. hydrophila (Aeromonas hydrophila; 10 h cultivation at 37° C.): 12.5 µg/mL
MIC against C. diversus (Citrobacter diversus; 10 h cultivation at 37° C.): 12.5 µg/mL
MIC against M. catarrhalis (Moraxella catarrhalis; 10 h cultivation at 37° C.): 12.5 µg/mL
MIC against P. mirabilis (Proteus mirabilis; 10 h cultivation at 37° C.): 12.5 µg/mL
MIC against P. vulgaris (Proteus vulgaris; 10 h cultivation at 37° C.): 12.5 µg/mL
MIC against S. marcescens (Serratia marcescens; 10 h cultivation at 37° C.): 12.5 µg/mL

PRT1078 (GTNKCRVNNGGCSSLCLATPGSRQCACAEDQVLDADGVTCL; listed as Homo sapiens)
MIC (E. coli DH5α): 25 µg/mL
MIC E. coli BL21 (E. coli BL21; [11]): 50 µg/mL
MIC P. aeruginosa (Pseudomonas aeruginosa; [11]): 25 µg/mL
MIC K. pneumonia (Klebsiella pneumonia; [11]): 12.5 µg/mL
MIC E. cloacae (Enterobacter cloacae; [11]): 25 µg/mL
MIC A. hydrophila (Aeromonas hydrophila; [11]): 50 µg/mL
MIC C. diversus (Citrobacter diversus; [11]): 12.5 µg/mL
MIC M. catarrhalis (Moraxella catarrhalis; [11]): 50 µg/mL
MIC P. mirabilis (Proteus mirabilis; [11]): 12.5 µg/mL
MIC P. vulgaris (Proteus vulgaris; [11]): 50 µg/mL
MIC S. marcescens (Serratia marcescens; [11]): 12.5 µg/mL

PRT1284 (LVDLCSPDLNPCQHEAQCVGTPDGPRCECMPGYAGDNCS; listed as Homo sapiens)
MIC (E. coli DH5α): 25 µg/mL
MIC against E. coli BL21 (E. coli BL21; [12]): 50 µg/mL
MIC against P. aeruginosa (Pseudomonas aeruginosa; 96-well plate, 37° C., 10 h): 25 µg/mL
MIC against K. pneumonia (Klebsiella pneumonia; 96-well plate, 37° C., 10 h): 12.5 µg/mL
MIC against E. cloacae (Enterobacter cloacae; 96-well plate, 37° C., 10 h): 25 µg/mL
MIC against A. hydrophila (Aeromonas hydrophila; 96-well plate, 37° C., 10 h): 12.5 µg/mL
MIC against C. diversus (Citrobacter diversus; 96-well plate, 37° C., 10 h): 12.5 µg/mL
MIC against M. catarrhalis (Moraxella catarrhalis; 96-well plate, 37° C., 10 h): 50 µg/mL
MIC against P. mirabilis (Proteus mirabilis; 96-well plate, 37° C., 10 h): 12.5 µg/mL
MIC against P. vulgaris (Proteus vulgaris; 96-well plate, 37° C., 10 h): 25 µg/mL
MIC against S. marcescens (Serratia marcescens; 96-well plate, 37° C., 10 h): 12.5 µg/mL
